Reference: patent EP4692061A1, “LOW-MOLECULAR-WEIGHT COMPOUND HAVING CEREBLON-BINDING ACTIVITY, AND USE THEREOF” (Aevis Bio, Inc., priority 2023, dated 2024)
pIC50: −log10 of the molar value.

molecular target: cereblon (CRBN) (Homo sapiens, UniProt Q96SW2); assay: In vitro CRBN binding assay (AlphaScreen, competitive inhibition of the PROTAC assay); conditions: not given

| Compound | pIC50 |
| --- | --- |
| Cc1ccc(NC(=O)Nc2cccc(S(=O)(=O)Nc3cccc(C4CCC(=O)NC4=O)c3)c2)cc1Cl (centres unmarked) [AEV40181] | 6.49 |

same assay, conditions: Table 1; AlphaScreen, PROTAC Optimization Kit for BET Bromodomain-Cereblon Binding; read-out: Alpha IC50

| Compound | pIC50 |
| --- | --- |
| C[C@H](O)C(=O)Nc1cccc(C2CCC(=O)NC2=O)c1 (some centres unmarked) [AEV40031] | 5.41 |
| O=C1CCC(c2cccc(NC(=O)c3c[nH]c4ccccc34)c2)C(=O)N1 (centres unmarked) [AEV40194] | 6.07 |
| O=C1CCC(c2cccc(NCc3ccc(C(F)(F)F)cc3)c2)C(=O)N1 (centres unmarked) [AEV40104] | 5.76 |
| O=C1CCC(c2cccc(NCc3ccc(Oc4ccccc4)cc3)c2)C(=O)N1 (centres unmarked) [AEV40103] | 5.50 |
| COc1cc(C)ccc1CNc1cccc(C2CCC(=O)NC2=O)c1 (centres unmarked) [AEV40108] | 6.08 |
| CC(C)C(=O)Nc1ccc(F)c(C2CCC(=O)NC2=O)c1 (centres unmarked) [AEV40035] | 5.51 |
| CCCCCCOc1ccc(NC(=O)CCc2cccc(Nc3cccc(C4CCC(=O)NC4=O)c3)c2)cc1 (centres unmarked) [AEV40199] | 5.46 |
| O=C1CCC(c2cccc(Nc3cccc(CCC(=O)N4CCS(=O)(=O)CC4)c3)c2)C(=O)N1 (centres unmarked) [AEV40205] | 6.08 |
| O=C1CCC(c2cccc(NCc3ccc(-c4ccccc4)cc3)c2)C(=O)N1 (centres unmarked) [AEV40122] | 5.61 |
| O=C1CCC(c2ccc3c(c2)OCCN(c2cccc(NC(=O)C4(C(=O)Nc5ccc(F)cc5)CC4)c2)C3=O)C(=O)N1 (centres unmarked) [AEV40215] | 5.67 |
| O=C1CCC(c2ccc3c(c2)CNC3=O)C(=O)N1 (centres unmarked) [AEV40040] | 5.86 |
| O=C1CCC(c2ccc3c(c2)OCCN(c2cccc(NC(=O)c4ccc(Cl)cc4Cl)c2)C3=O)C(=O)N1 (centres unmarked) [AEV40217] | 5.93 |
| O=C1CCC(c2ccc3oc(N4CCCCC4)nc3c2)C(=O)N1 (centres unmarked) [AEV40208] | 5.45 |
| O=C1CCC(c2cccc(NC(=O)c3ccc(Cl)cc3Cl)c2)C(=O)N1 (centres unmarked) [AEV40076] | 5.87 |
| Cc1ccc(C(=O)Nc2cccc(C3CCC(=O)NC3=O)c2)cc1 (centres unmarked) [AEV40141] | 5.68 |
| Cc1ccc(CNc2cccc(C3CCC(=O)NC3=O)c2)cc1 (centres unmarked) [AEV40102] | 5.91 |
| COCCN1Cc2cc(C3CCC(=O)NC3=O)ccc2C1=O (centres unmarked) [AEV40042] | 5.27 |
| O=C1CCC(c2cccc(NC(=O)Nc3ccc(Cl)cc3)c2)C(=O)N1 (centres unmarked) [AEV40131] | 6.72 |
| O=C1CCC(c2cccc(NS(=O)(=O)c3cccc(Cl)c3Cl)c2)C(=O)N1 (centres unmarked) [AEV40058] | 6.17 |
| COc1ccc(CN2CCOc3ccc(C4CCC(=O)NC4=O)cc3C2=O)cc1 (centres unmarked) [AEV40036] | 5.95 |
| O=C1CCC(c2cccc(NC(=O)c3cccc4[nH]ccc34)c2)C(=O)N1 (centres unmarked) [AEV40191] | 6.32 |
| Cc1ccc(NC(=O)CCc2cccc(Nc3cccc(C4CCC(=O)NC4=O)c3)c2)cc1Cl (centres unmarked) [AEV40185] | 5.36 |
| O=C1CCC(c2cccc(NCc3cccc4ccccc34)c2)C(=O)N1 (centres unmarked) [AEV40120] | 5.85 |
| O=C1CCC(c2cccc(NCc3cccc(F)c3)c2)C(=O)N1 (centres unmarked) [AEV40107] | 5.83 |
| O=C1CCC(c2ccc3c(c2)OCCNC3=O)C(=O)N1 (centres unmarked) [AEV40079] | 5.61 |
| O=C1CCC(c2cccc(NCc3ccccc3)c2)C(=O)N1 (centres unmarked) [AEV40087] | 5.94 |

| Compound | pIC50 |
| --- | --- |
| O=C1CCC(c2ccc3c(c2)OCCN(c2cccc(NC(=O)C4CCOCC4)c2)C3=O)C(=O)N1 (centres unmarked) [AEV40216] | 5.60 |
| Cc1ccc(CNc2cccc(C3CCC(=O)NC3=O)c2)cc1F (centres unmarked) [AEV40095] | 5.80 |
| O=C1CCC(c2cccc(NCc3ccc(F)cc3O)c2)C(=O)N1 (centres unmarked) [AEV40097] | 6.00 |
| CC(C)C(=O)Nc1cccc(C2CCC(=O)NC2=O)c1 (centres unmarked) [AEV40024] | 5.21 |
| O=C1CCC(c2cccc(NS(=O)(=O)c3cccc(NC(=O)c4ccc(Cl)cc4)c3)c2)C(=O)N1 (centres unmarked) [AEV40135] | 5.92 |
| CS(=O)(=O)N1Cc2cc(C3CCC(=O)NC3=O)ccc2C1=O (centres unmarked) [AEV40059] | 3.99 |
| O=C1CCC(c2cccc(NCc3ccc(Br)cc3Cl)c2)C(=O)N1 (centres unmarked) [AEV40109] | 5.60 |
| CC(C)(C)c1ccc(CNc2cccc(C3CCC(=O)NC3=O)c2)cc1 (centres unmarked) [AEV40098] | 5.55 |
| O=C1CCC(c2cccc(NC(=O)c3ccc(Cl)c(Cl)c3)c2)C(=O)N1 (centres unmarked) [AEV40137] | 5.65 |
| O=C1CCC(c2ccc3oc(N4CCOCC4)nc3c2)C(=O)N1 (centres unmarked) [AEV40207] | 5.34 |
| COC(=O)C1CC2(CC(NC(=O)CCc3cccc(Nc4cccc(C5CCC(=O)NC5=O)c4)c3)C2)C1 (centres unmarked) [AEV40210] | 5.91 |
| O=C1CCC(c2ccc3c(c2)C(=O)NCC3)C(=O)N1 (centres unmarked) [AEV40078] | 5.51 |
| Nc1cccc(N2CCOc3cc(C4CCC(=O)NC4=O)ccc3C2=O)c1 (centres unmarked) [AEV40206] | 5.43 |
| O=C1CCC(c2ccc3c(c2)OCCN(Cc2ccccc2)C3=O)C(=O)N1 (centres unmarked) [AEV40086] | 5.38 |
| Nc1cccc(C2CCC(=O)NC2=O)c1 (centres unmarked) [AEV40029] | 5.53 |
| Nc1nn(C(=O)CCc2cccc(Nc3cccc(C4CCC(=O)NC4=O)c3)c2)c2ccccc12 (centres unmarked) [AEV40202] | 6.10 |
| O=C1CCC(c2cccc(NC(=O)c3n[nH]cc3Cl)c2)C(=O)N1 (centres unmarked) [AEV40183] | 5.98 |
| CC(C)(C)OC(=O)NCc1cccc(C2CCC(=O)NC2=O)c1 (centres unmarked) [AEV40130] | 5.36 |
| Cc1ccc(NC(=O)NCc2cccc(Nc3cccc(C4CCC(=O)NC4=O)c3)c2)cc1Cl (centres unmarked) [AEV40192] | 5.49 |
| O=C1CCC(c2cccc(NC(=O)c3ccsc3Cl)c2)C(=O)N1 (centres unmarked) [AEV40189] | 5.79 |
| O=C1CCC(c2ccc3c(c2)C(=O)NC3)C(=O)N1 (centres unmarked) [AEV40032] | 5.51 |
| Cc1cccc(CNc2cccc(C3CCC(=O)NC3=O)c2)c1 (centres unmarked) [AEV40106] | 5.94 |
| Cc1cn(C)nc1CNc1cccc(C2CCC(=O)NC2=O)c1 (centres unmarked) [AEV40113] | 6.18 |
| CN1Cc2cc(C3CCC(=O)NC3=O)ccc2C1=O (centres unmarked) [AEV40050] | 5.57 |
| O=C1CCC(c2ccc3ncoc3c2)C(=O)N1 (centres unmarked) [AEV40203] | 5.74 |

Continued, values first:

| pIC50 | Compound |
| --- | --- |
| 6.01 | CC1(C(=O)Nc2cccc(S(=O)(=O)Nc3cccc(C4CCC(=O)NC4=O)c3)c2)CC1 (centres unmarked) [AEV40227] |
| 6.02 | O=C1CCC(c2cccc(NS(=O)(=O)c3cccc(NC(=O)c4ccccc4Br)c3)c2)C(=O)N1 (centres unmarked) [AEV40155] |
| 6.01 | O=C1CCC(c2cccc(NS(=O)(=O)c3cccc(NC(=O)c4ccc(Cl)c(Cl)c4)c3)c2)C(=O)N1 (centres unmarked) [AEV40142] |
| 6.68 | O=C1CCC(c2cccc(NS(=O)(=O)c3cccc(NCc4ccc5ocnc5c4)c3)c2)C(=O)N1 (centres unmarked) [AEV40172] |
| 6.57 | Nc1ccccc1S(=O)(=O)Nc1cccc(C2CCC(=O)NC2=O)c1 (centres unmarked) [AEV40074] |
| 5.95 | Nc1ccc(S(=O)(=O)Nc2cccc(C3CCC(=O)NC3=O)c2)cc1C(F)(F)F (centres unmarked) [AEV40075] |
| 5.67 | O=C1CCC(c2cccc(NC(=O)c3ccc(Cl)cc3)c2)C(=O)N1 (centres unmarked) [AEV40139] |
| 6.64 | O=C1CCC(c2cccc(NS(=O)(=O)c3ccc(Cl)cc3F)c2)C(=O)N1 (centres unmarked) [AEV40044] |
| 5.73 | O=C1CCC(c2cccc(NS(=O)(=O)c3ccccc3)c2)C(=O)N1 (centres unmarked) [AEV40025] |
| 6.40 | O=C1CCC(c2cccc(NS(=O)(=O)c3cccc(NCc4c[nH]c5ccc(Cl)cc45)c3)c2)C(=O)N1 (centres unmarked) [AEV40173] |
| 6.12 | O=C1CCC(c2cccc(NS(=O)(=O)c3ccc([N+](=O)[O-])c(C(F)(F)F)c3)c2)C(=O)N1 (centres unmarked) [AEV40053] |
| 6.52 | O=C1CCC(c2cccc(NS(=O)(=O)c3ccccc3F)c2)C(=O)N1 (centres unmarked) [AEV40045] |
| 5.82 | O=C1CCC(c2cccc(NS(=O)(=O)c3cccc(NC(=O)c4c(F)cccc4C(F)(F)F)c3)c2)C(=O)N1 (centres unmarked) [AEV40149] |
| 5.90 | O=C1CCC(c2cccc(NS(=O)(=O)c3cccc(NC(=O)c4c(F)cccc4F)c3)c2)C(=O)N1 (centres unmarked) [AEV40156] |
| 5.83 | O=C1CCC(c2cccc(NS(=O)(=O)c3cccc(NC(=O)c4c(Cl)ccc(Cl)c4F)c3)c2)C(=O)N1 (centres unmarked) [AEV40159] |
| 6.00 | CCc1ccc(S(=O)(=O)Nc2cccc(C3CCC(=O)NC3=O)c2)cc1 (centres unmarked) [AEV40046] |
| 6.07 | CCCOc1ccc(C(=O)Nc2cccc(S(=O)(=O)Nc3cccc(C4CCC(=O)NC4=O)c3)c2)cc1 (centres unmarked) [AEV40193] |
| 5.74 | O=C1CCC(c2cccc(NS(=O)(=O)c3cccc(NC(=O)c4ccc(Cl)cc4Cl)c3)c2)C(=O)N1 (centres unmarked) [AEV40150] |
| 5.65 | COC(=O)c1cccc(S(=O)(=O)Nc2cccc(C3CCC(=O)NC3=O)c2)c1 (centres unmarked) [AEV40226] |

| pIC50 | Compound |
| --- | --- |
| 5.82 | CCCc1ccc(S(=O)(=O)Nc2cccc(C3CCC(=O)NC3=O)c2)cc1 (centres unmarked) [AEV40047] |
| 6.23 | O=C1CCC(c2cccc(NS(=O)(=O)c3ccccc3Cl)c2)C(=O)N1 (centres unmarked) [AEV40057] |
| 5.86 | O=C1CCC(c2cccc(NS(=O)(=O)c3ccc(C(F)(F)F)cc3)c2)C(=O)N1 (centres unmarked) [AEV40100] |
| 5.66 | O=C1CCC(c2cccc(NC(=O)c3ccccc3)c2)C(=O)N1 (centres unmarked) [AEV40088] |
| 6.14 | O=C1CCC(c2cccc(NS(=O)(=O)c3cccc(NC(=O)c4cccc(Br)c4)c3)c2)C(=O)N1 (centres unmarked) [AEV40157] |
| 6.47 | COc1ccccc1C(=O)Nc1cccc(S(=O)(=O)Nc2cccc(C3CCC(=O)NC3=O)c2)c1 (centres unmarked) [AEV40151] |
| 5.89 | O=C1CCC(c2cccc(NS(=O)(=O)c3ccc(F)cc3)c2)C(=O)N1 (centres unmarked) [AEV40101] |
| 6.08 | O=C1CCC(c2cccc(NC(=O)c3ccc4ccccc4n3)c2)C(=O)N1 (centres unmarked) [AEV40187] |
| < 5.00 | O=C1CCC(c2cccc(NC(=O)c3ccc(-c4ccccc4)cc3)c2)C(=O)N1 (centres unmarked) [AEV40161] |
| 6.14 | O=C1CCC(c2cccc(NS(=O)(=O)c3cccc(NC(=O)c4ccccc4C(F)(F)F)c3)c2)C(=O)N1 (centres unmarked) [AEV40152] |
| 6.02 | Cc1c(F)cccc1S(=O)(=O)Nc1cccc(C2CCC(=O)NC2=O)c1 (centres unmarked) [AEV40052] |
| 6.04 | O=C1CCC(c2cccc(NS(=O)(=O)c3cccc([N+](=O)[O-])c3)c2)C(=O)N1 (centres unmarked) [AEV40056] |
| 5.68 | O=C1CCC(c2cccc(Nc3cccc(NC(=O)c4ccc(Cl)cc4Cl)c3)c2)C(=O)N1 (centres unmarked) [AEV40220] |
| 5.78 | O=C1CCC(c2cccc(NC(=O)c3ccc(F)cc3F)c2)C(=O)N1 (centres unmarked) [AEV40164] |
| 6.04 | Cc1c(Cl)cccc1S(=O)(=O)Nc1cccc(C2CCC(=O)NC2=O)c1 (centres unmarked) [AEV40043] |
| 5.78 | CCCCc1ccc(C(=O)Nc2cccc(Nc3cccc(C4CCC(=O)NC4=O)c3)c2)cc1 (centres unmarked) [AEV40221] |
| 5.74 | O=C1CCC(c2cccc(NC(=O)c3ccc(F)cc3)c2)C(=O)N1 (centres unmarked) [AEV40140] |
| 6.70 | O=C1CCC(c2cccc(NS(=O)(=O)c3ccc(Cl)cc3Cl)c2)C(=O)N1 (centres unmarked) [AEV40054] |
